From patent US11613525B2 (CTXT PTY LIMITED, priority 2018, dated 2023)
Where two headings read alike, the source gives them in different places.

How the values were obtained:
[1] = target: T1, human STING (HAQ) (Homo sapiens, UniProt Q86WV6, G230A/H232R/R293Q); assay: biochemical; type: binding
[2] = target: T2, huSTING (WT) (Homo sapiens (Human), UniProt Q86WV6, H232R); assay: Differential scanning fluorimetry (DSF), huSTING (WT); type: binding; settings: read-out: DSF huSTING (WT) ΔTm (° C.)
Target sequence in this assay (Q86WV6 other isoform, or with tags, fused parts or gaps, stated change not applied): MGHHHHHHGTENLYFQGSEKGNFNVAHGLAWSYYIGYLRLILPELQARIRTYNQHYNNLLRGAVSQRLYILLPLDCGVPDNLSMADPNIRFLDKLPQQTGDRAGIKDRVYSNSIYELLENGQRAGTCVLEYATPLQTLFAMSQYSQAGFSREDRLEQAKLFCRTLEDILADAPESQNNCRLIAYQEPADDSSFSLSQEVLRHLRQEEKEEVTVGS

[3] = target: huSTING (HAQ) (Homo sapiens (Human), UniProt Q86WV6, G230A/H232R/R293Q/R71H); assay: THP-1 reporter cell line assay, THP-1 STING Lucia ISG cells; type: cell-based; settings: THP-1 STING Lucia ISG cells, read-out: Cellular EC50 huSTING (HAQ)
[4] = target: T2, huSTING (WT); assay: THP-1 reporter cell line assay, THP-1-Dual KI-hSTING-R232 cells; type: cell-based; settings: read-out: Cellular EC50 huSTING (WT)
Target sequence in this assay (Q86WV6 whole entry H232R): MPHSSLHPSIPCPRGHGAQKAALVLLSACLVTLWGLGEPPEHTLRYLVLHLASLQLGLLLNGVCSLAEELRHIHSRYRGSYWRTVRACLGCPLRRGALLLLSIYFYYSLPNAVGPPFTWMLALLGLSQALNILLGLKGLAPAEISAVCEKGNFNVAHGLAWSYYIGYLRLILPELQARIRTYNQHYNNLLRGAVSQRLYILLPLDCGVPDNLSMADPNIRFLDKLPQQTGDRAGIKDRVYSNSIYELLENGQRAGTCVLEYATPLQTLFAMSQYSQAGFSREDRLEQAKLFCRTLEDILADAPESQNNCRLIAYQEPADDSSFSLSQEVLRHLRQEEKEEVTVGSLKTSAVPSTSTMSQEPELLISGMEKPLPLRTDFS

[5] = target: T1, human STING (HAQ); settings: read-out: SPR (HAQ) KD; 25° C.
[6] = target: T1, human STING (HAQ); assay: SPR (HAQ) 8° C.; type: binding; settings: 50% occupancy as surrogate KD, read-out: SPR huSTING (HAQ) KD at 8° C.
From the text: (§1) Binding interactions of ligands with STING proteins were quantified using Surface Plasmon Resonance (SPR) with a minimally biotinylated STING protein immobilized on Streptavidin chip surface.
(§2) These were modified for compounds with longer residence times, so that curves could reach steady-state, or so that compound would be fully dissociated before the subsequent injection.
(§3) For single-cycle kinetic experiments, sensorgrams were fit to a two-step kinetic model in which two analyte molecules bind sequentially (Biacore T200 or S200 Evaluation Software).

[7] = target: T2, huSTING (WT); assay: SPR (WT) 8° C.; type: binding; settings: read-out: SPR huSTING (WT) KD at 8° C.
From the text: as §1, §2, §3
Target sequence in this assay (Q86WV6 other isoform, or with tags, fused parts or gaps, stated change not applied): as the sequence (Q86WV6 other isoform, or with tags, fused parts or gaps, stated change not applied) above

[8] = 1 μM protein, compound at 100 μM
[9] = compound 100 μM, protein concentration 2 μM
[10] = modified method, top concentration 40 μM, pin tool, EnVision

T1 sequence (Q86WV6 whole entry G230A/H232R/R293Q, looked up): as the sequence (Q86WV6 whole entry H232R) above, with G230A, R293Q counted along it
huSTING (HAQ), sequence (Q86WV6 whole entry R71H/G230A/H232R/R293Q): as the sequence (Q86WV6 whole entry H232R) above, with R71H, G230A, R293Q counted along it

Cc1cc(OCc2c(C(=O)O)sc3cccc(F)c23)ccc1C(N)=O [Example 54, 3-((4-Carbamoyl-3-methylphenoxy)methyl)-4-fluorobenzo[b]thiophene-2-carboxylic acid]
DSF huSTING (HAQ) ΔTm (° C.) [1, 8]: 2.56 °C
ΔTm at 100 µM [2]: -1.28 °C
EC50 ([3]; 24 h, top concentration 50 μM): > 50 µM
EC50 [4]: > 50 µM
Kd [5]: 51 µM

NC(=O)c1cc(F)c(OCc2c(C(=O)O)sc3cccc(F)c23)c(Br)c1 [Example 56, 3-((2-Bromo-4-carbamoyl-6-fluorophenoxy)methyl)-4-fluorobenzo[b]thiophene-2-carboxylic acid]
DSF huSTING (HAQ) ΔTm (° C.) [1, 8]: 4.48 °C
ΔTm at 100 µM [2]: -1.29 °C
EC50 ([3]; 24 h, top concentration 50 μM): > 50 µM
EC50 [4]: > 50 µM
Kd [5]: 29 µM

NC(=O)c1cc(F)c(OCc2c(C(=O)O)sc3cccc(F)c23)c(F)c1 [Example 57, 3-((4-Carbamoyl-2,6-difluorophenoxy)methyl)-4-fluorobenzo[b]thiophene-2-carboxylic acid]
DSF huSTING (HAQ) ΔTm (° C.) [1, 8]: 10.74 °C
ΔTm at 100 µM [2]: 3.43 °C
EC50 ([3]; 24 h, top concentration 50 μM): > 50 µM
EC50 [4]: > 50 µM
Kd [5]: 9.05 µM

NC(=O)c1ccc(OCc2c(C(=O)O)sc3cccc(F)c23)c(F)c1 [Example 59, 3-((4-carbamoyl-2-fluorophenoxy)methyl)-4-fluorobenzo[b]thiophene-2-carboxylic acid]
DSF huSTING (HAQ) ΔTm (° C.) [1, 8]: 7.31 °C
ΔTm at 100 µM [2]: 0.54 °C
EC50 ([3]; 24 h, top concentration 50 μM): > 50 µM
EC50 [4]: > 50 µM
Kd [5]: 15.2 µM

NC(=O)c1ccc(OCc2c(C(=O)O)sc3cccc(C4CC4)c23)cc1 [Example 61, 3-((4-Carbamoylphenoxy)methyl)-4-cyclopropylbenzo[b]thiophene-2-carboxylic acid]
DSF huSTING (HAQ) ΔTm (° C.) [1, 8]: 14.62 °C
ΔTm at 100 µM [2]: 5.68 °C
EC50 ([3]; 24 h, top concentration 50 μM): 39.6 µM
EC50 [4]: > 50 µM
Kd [5]: 0.83 µM

NC(=O)c1ccc(OCc2c(C(=O)O)sc3cccc(Cl)c23)cc1Br [Example 64, 3-((3-Bromo-4-carbamoylphenoxy)methyl)-4-chlorobenzo[b]thiophene-2-carboxylic acid]
DSF huSTING (HAQ) ΔTm (° C.) [1, 8]: 6.79 °C
ΔTm at 100 µM [2]: 2.73 °C
EC50 ([3]; 24 h, top concentration 50 μM): > 50 µM
EC50 [4]: > 50 µM
Kd [5]: 6.2 µM

NC(=O)c1cc(F)c(OCc2c(C(=O)O)sc3cccc(Cl)c23)c(Br)c1 [Example 71, 3-((2-Bromo-4-carbamoyl-6-fluorophenoxy)methyl)-4-chlorobenzo[b]thiophene-2-carboxylic acid]
DSF huSTING (HAQ) ΔTm (° C.) [1, 8]: 12.18 °C
ΔTm at 100 µM [2]: 5.11 °C
EC50 ([3]; 24 h, top concentration 50 μM): 21.4 µM
EC50 [4]: 40.4 µM
Kd [5]: 2.12 µM

NC(=O)c1ccc(CCc2c(C(=O)O)sc3cccc(F)c23)cc1 [Example 88, 3-(4-Carbamoylphenethyl)-4-fluorobenzo[b]thiophene-2-carboxylic acid]
DSF huSTING (HAQ) ΔTm (° C.) [1, 8]: 0.97 °C
ΔTm at 100 µM [2]: -1.07 °C
EC50 ([3]; 24 h, top concentration 50 μM): > 50 µM
EC50 [4]: > 50 µM
Kd [5]: 533 µM

COc1ncnc2sc(C(=O)O)c(COc3c(F)cc(C(N)=O)cc3F)c12 [Example 109, 5-((4-Carbamoyl-2,6-difluorophenoxy)methyl)-4-methoxythieno[2,3-d]pyrimidine-6-carboxylic acid]
DSF huSTING (HAQ) ΔTm (° C.) [1, 9]: 8.60 °C
Kd [6]: 160 µM
Kd [7]: 200 µM
EC50 [3, 10]: > 40 µM
EC50 [4]: > 40 µM

COCc1cc(OCc2c(C(=O)O)sc3cccc(Cl)c23)ccc1C(N)=O [Example 113, 3-((4-Carbamoyl-3-(methoxymethyl)phenoxy)methyl)-4-chlorobenzo[b]thiophene-2-carboxylic acid]
DSF huSTING (HAQ) ΔTm (° C.) [1, 9]: 5.60 °C
Kd [6]: 52 µM
EC50 [3, 10]: > 40 µM
EC50 [4]: > 40 µM

NC(=O)c1cc(F)c(OCc2c(C(=O)O)sc3cncc(Cl)c23)c(F)c1 [Example 171, Lithium 3-((4-carbamoyl-2,6-difluorophenoxy)methyl)-4-chlorothieno[2,3-c]pyridine-2-carboxylate]
DSF huSTING (HAQ) ΔTm (° C.) [1, 9]: 9.33 °C
Kd [6]: 4.87 µM
EC50 [3, 10]: > 40 µM
EC50 [4]: > 40 µM

COc1nccc2sc(C(=O)O)c(COc3c(F)cc(C(N)=O)cc3CO)c12 [Example 172, 3-((4-Carbamoyl-2-fluoro-6-(hydroxymethyl)phenoxy)methyl)-4-methoxythieno[3,2-c]pyridine-2-carboxylic acid]
DSF huSTING (HAQ) ΔTm (° C.) [1, 9]: 0.56 °C
Kd [6]: 220 µM
EC50 [3, 10]: > 40 µM
EC50 [4]: > 40 µM
